What all share (experiment): NCI anticancer screen, dose series, 48 h
Experiment [1] has as its system SF-539 CNS.
In experiment [2] the test system is UACC-62 melanoma.
Experiment [3] has as its system OVCAR-3 ovarian.
Experiment [4] deals with HL-60(TB) leukemia.
Experiment [5] relates to SK-MEL-5 melanoma.
The test system of experiment [6] is SNB-19 CNS.
Experiment [7] has as its system SN12C renal.
Experiment [8] has as its system KM12 colon.
The test system of experiment [9] is NCI-H460 lung.
Experiment [10] deals with HOP-92 NSCLC.
Experiment [11] concerns NCI-H226 lung.
Experiment [12] relates to SNB-75 CNS.
In experiment [13] the test system is HT29 colon.
The subject of experiment [14] is OVCAR-4 ovarian.
In experiment [15] the test system is SR leukemia.
For experiment [16], the system named is 786-0 renal.
Experiment [17] concerns T-47D breast.
The test system of experiment [18] is MCF7 breast.
The test system of experiment [19] is MDA-MB-435.
The subject of experiment [20] is PC-3 prostate.

17 compounds from PubChem BioAssay (NCI) can be followed below.

SMILES strings stand for the structures.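 Cultured in 96-well plates, cells were exposed to test compound for 48 hours across five concentrations. TGI marks complete inhibition of growth.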 Where only a bound is given, the exact number is not on record here.

Take `COc1ccc(-c2cc(=O)c3cc(Cl)ccc3[nH]2)cc1`: the TGI in experiment [1], in experiment [2], in [3], in [4], in experiment [5] and in [6] was more than 100 µM throughout. The TGI in experiment [7], in experiment [8], in experiment [9], in [10], in [11] and in experiment [12] was more than 100 µM each time. The TGI in experiment [13], in experiment [14], in [15] and in experiment [16] was more than 100 µM throughout.
Turning to `O=C(c1ccccc1)N(CCCCNC(=O)C(F)(F)F)CCCNC(=O)C(F)(F)F`, the TGI in [1], in experiment [2], in experiment [4], in [5], in experiment [6] and in experiment [7] was more than 100 µM throughout. The TGI in [8], in [9], in experiment [10], in experiment [17], in [18] and in experiment [19] was more than 100 µM each time. Besides, the TGI in [11], in [12], in [13], in experiment [14], in [15] and in [16] was more than 100 µM throughout.
For the compound `O=C1c2cn[nH]c2N=C(Nc2ccccc2)C1N=Cc1ccc([N+](=O)[O-])cc1` (centres undefined), the TGI in [1], in experiment [3], in [4], in [5], in experiment [6] and in experiment [7] was more than 10 µM each time. The TGI in experiment [8], in experiment [9], in experiment [18], in experiment [19], in experiment [11] and in experiment [12] was more than 10 µM each time. For the same compound, the TGI in experiment [20], in experiment [13], in experiment [14], in experiment [15] and in experiment [16] was more than 10 µM each time.
In the case of `N#Cc1ccccc1NC(=O)C(=O)C(C(=O)c1ccncc1)C1OC(=O)c2ccccc21` (centres undefined), the TGI in experiment [1], in [2], in experiment [3], in [4], in experiment [5] and in experiment [6] was more than 100 µM throughout. Further, the TGI in experiment [7], in experiment [8], in [9], in experiment [10], in experiment [11] and in experiment [12] was more than 100 µM throughout. The TGI in experiment [13], in experiment [14], in experiment [15] and in experiment [16] was more than 100 µM each time.
As for `Cc1cc(C#N)c(Nc2ccc(F)cc2[N+](=O)[O-])s1`, the TGI in experiment [1], in experiment [2], in [3], in experiment [6], in [7] and in experiment [8] was more than 100 µM throughout. The TGI in experiment [9] is more than 100 µM; in [10], 94.6 µM; in [17] it was more than 100 µM; in experiment [19], more than 100 µM; in experiment [11], more than 100 µM; in experiment [12], more than 100 µM. In addition, the TGI in [20], in experiment [14], in experiment [15] and in experiment [16] was more than 100 µM throughout.
Consider `CCCCCCCC(=O)OCC1OC(n2cc(F)c(=O)[nH]c2=O)C(N)C(O)C1O` (centres undefined), for which the TGI in experiment [1], in experiment [2], in experiment [3], in experiment [4], in experiment [5] and in [6] was more than 100 µM in each case. The TGI in [7], in experiment [8], in [9], in experiment [10], in [11] and in experiment [12] was more than 100 µM each time. The TGI in experiment [13], in experiment [14], in [15] and in experiment [16] was more than 100 µM throughout.
Consider `CC(C)c1cccc(C(C)C)c1NC(=O)C(=O)C1CCC2=C(Sc3ccccc3N2)C1=O` (centres undefined), for which the TGI in experiment [1] is 76.7 µM; in [2], more than 100 µM; in [3], more than 100 µM; in experiment [4], more than 100 µM; in experiment [5], more than 100 µM; in [6] it was more than 100 µM. The TGI in [7], in experiment [8], in experiment [9], in experiment [10], in [11] and in experiment [12] was more than 100 µM each time. In addition, the TGI in [13], in experiment [14], in experiment [15] and in [16] was more than 100 µM throughout.
As for `CN(C)/C=C/c1c2c(nc3ccccc13)C(=O)c1cccnc1C2=O`, the TGI worked out at 1.21 µM in experiment [1]; 1.25 µM in experiment [2]; 1.09 µM in experiment [3]; 2.53 µM in experiment [4]; 0.346 µM in experiment [5]; 1.95 µM in experiment [6]. The TGI came out at 2.57 µM in [7]; 1.56 µM in experiment [8]; 0.532 µM in [9]; 11.5 µM in experiment [10]; 21.6 µM in [17]; 1.56 µM in [19]. The TGI in experiment [12] amounted to 4.66 µM; in experiment [20], 11.1 µM; in experiment [13] it was 5.15 µM; in [14], 4.01 µM; in experiment [15], 0.907 µM; in [16], 1.33 µM.
On to `O=c1[nH]nc(CNc2ccc(Cl)cc2Cl)c2ccccc12`, for which the TGI in [1] is 41 µM; in experiment [2] it was more than 100 µM; in experiment [3], 40.3 µM; in [4] it was more than 100 µM; in experiment [5] it was 50.6 µM; in [6], 60.7 µM. The TGI in experiment [7] is 97 µM; in [8] it was more than 100 µM; in experiment [9], 84.5 µM; in experiment [10], 80.1 µM; in experiment [11], 81.2 µM; in [12] it was 60.8 µM. Besides, the TGI in experiment [13] was more than 100 µM; in experiment [14] it was 39.8 µM; in experiment [15], more than 100 µM; in [16], 41.3 µM.
Take `CCOP(=O)(Nc1ccc(-c2ccc(N)cc2)cc1)OCC`: the TGI in [2], in [3], in experiment [5], in experiment [6], in experiment [8] and in experiment [9] was more than 100 µM each time. Besides, the TGI in [10], in [18], in experiment [19], in experiment [12], in experiment [20] and in experiment [13] was more than 100 µM each time. The TGI in experiment [14] and in experiment [16] was more than 100 µM throughout.
As to `C=CCCCN1CCCCC1=S`, the TGI in experiment [1], in experiment [2], in [3], in experiment [4], in [5] and in [6] was more than 100 µM in each case. The TGI in [7], in [8], in experiment [9], in experiment [10], in experiment [11] and in experiment [12] was more than 100 µM each time. Besides, the TGI in experiment [13], in [14], in experiment [15] and in experiment [16] was more than 100 µM in each case.
As to `C/C=C\C(CC(=O)NCCC1CN(C(=O)OCc2ccccc2)c2ccccc21)CC(=O)OC` (centres undefined), the TGI in experiment [2], in experiment [3], in experiment [5], in experiment [6], in experiment [8] and in [9] was more than 100 µM each time. Also, the TGI in [10], in [18], in experiment [19], in experiment [12], in experiment [20] and in [13] was more than 100 µM throughout. Besides, the TGI in experiment [14] and in experiment [16] was more than 100 µM throughout.
With `Oc1ccc(C2Oc3cc(O)cc4c3C2c2cc(O)cc3c2C(c2cc(O)cc5c2C4C(c2ccc(O)cc2)O5)C(c2ccc(O)cc2)O3)cc1` (centres undefined), the TGI in experiment [1] is 22.8 µM; in [2] it was more than 25 µM; in experiment [3], more than 25 µM; in [4] it was 14.1 µM; in [5] it was more than 25 µM; in experiment [6], more than 25 µM. For the same compound, the TGI in experiment [7] was more than 25 µM; in [8] it was more than 25 µM; in experiment [9], more than 25 µM; in experiment [10], 21.3 µM; in experiment [11], 17.3 µM; in experiment [12], 15.5 µM. Besides, the TGI in experiment [14] is 10.4 µM; in experiment [15], more than 25 µM; in experiment [16], more than 25 µM.
`Cc1ccc2nc(CN(CCO)CCO)cc(=O)n2c1`: the TGI in experiment [1], in [2], in experiment [3], in experiment [4], in [6] and in [7] was more than 100 µM throughout. Further, the TGI in experiment [8], in experiment [9], in experiment [10], in experiment [18], in experiment [19] and in experiment [11] was more than 100 µM throughout. In addition, the TGI in [12], in experiment [20], in experiment [13], in [14], in experiment [15] and in experiment [16] was more than 100 µM in each case.
For the compound `COc1ccc(/C=C2/SC(=Nc3ccccc3)N(NC(=O)Cc3ccccc3)C2=O)c(OC)c1`, the TGI in experiment [1], in experiment [2], in [3], in experiment [5], in [6] and in experiment [7] was more than 100 µM each time. Further, the TGI in experiment [8] is more than 100 µM; in experiment [9], more than 100 µM; in experiment [10] it was 67.4 µM; in [17], more than 100 µM; in experiment [18], more than 100 µM; in [19], more than 100 µM. Besides, the TGI in experiment [11], in experiment [12], in experiment [13], in experiment [14] and in [16] was more than 100 µM in each case.
As for `C#CC(C)(C)OCCCCOc1cc(O)c2c(=O)c3ccccc3n(C)c2c1`, the TGI in [1], in [2], in experiment [3], in experiment [4], in experiment [5] and in [6] was more than 100 µM in each case. The TGI in [7], in [8], in [9], in experiment [10], in experiment [11] and in experiment [12] was more than 100 µM in each case. For the same compound, the TGI in [13] was 45.7 µM; in [14], more than 100 µM; in [15], more than 100 µM; in experiment [16], more than 100 µM.
Regarding `O=C1NC(=S)NC(=O)C1=CC1CC1`, the TGI in experiment [1], in experiment [2], in [4], in experiment [5], in [6] and in [7] was more than 100 µM each time. For the same compound, the TGI in experiment [8], in experiment [9], in [10], in experiment [11], in experiment [12] and in experiment [13] was more than 100 µM each time. The TGI in experiment [14], in experiment [15] and in [16] was more than 100 µM in each case.
